Measured values taken from patent US4551460A, “Pyrido[2,1-b]quinazoline derivatives useful as agents for treatment of allergic conditions and vascular disorders involving thrombosis” (priority 1983, dated 1985).
pIC50: −log10 of the molar value. Like-named read-outs stand apart in the source and are kept apart here.

Legend:
[1] = tested on: SRS-A induced contraction of guinea pig ileum; assay: In vitro SRS-A antagonism; settings: 30 seconds pretreatment
Experimental: (j) In vitro SRS-A Antagonism
SRS-A was determined by bioassay on the guinea pig ileum using a modification of the method described by Orange et al., Adv. Immunol., 1969, 10, 105. A 1.5 cm segment of the ileum, obtained from male guinea pigs (175-200 g), was suspended in an organ bath containing Tyrodes solution with 10^-6 M atropine sulfate and 10^-6 M pyrilamine maleate. The bath was maintained at 37° C. and gassed with a mixture of 95 percent oxygen and 5 percent carbon dioxide. The ileum was attached to a strain gauge transducer and isotonic contractions recorded by a strip chart recorder. A resting tension of 0.5 g was applied and the tissue allowed to equilibrate for 1 hour.
The SRS-A used in these studies was obtained by challenging a large quantity of chopped lung fragments from actively sensitized guinea pigs with egg albumin in vitro. The animals were sensitized to egg albumin by an intraperitoneal injection of the antigen (1 ml of 10 mg/ml) in saline 28 to 45 days prior to challenge. The in vitro challenge was carried out by first preincubating the lung tissue (40 mg/ml) at 37° C. in Tyrodes solution for 5 minutes, adding the egg albumin ([…] final concentration) to the fragments and after a 10 minute challenge, separating the media containing the SRS-A from the lung tissue by filtration on Whatman #1 filter paper. The concentration of SRS-A in the filtrate was calibrated by comparison of the contraction amplitude elicited in the bioassay system by a given volume of the supernatant with contractions obtained by varying concentrations of histamine. One unit of SRS-A is equivalent to that quantity which will give the same contraction as 5 ng of histamine. After standarization, the SRS-A was stored in small aliquots at -80° C. for further use. […] SRS-A antagonism was determined by pretreating the ileum with drug for 30 seconds prior to the addition of a concentration of SRS-A which have a submaximal response, determination of the amplitude of contraction elicited in the presence of drug and then washing the ileum with Tyrodes. […]

[2] = tested on: leukotriene E (LTE) induced skin wheal formation in rat skin; assay: LTE-induced skin wheal formation in rat; assay type: in vivo; settings: rat skin wheal, read-out: ID50 (the source's name)
Experimental: (a) Methodology for LTE-induced Skin Wheal Formation in Rat. The ability of a drug to inhibit leukotriene E (LTE) induced skin wheal formation in rat skin is measured. In this model system a dose of LTE which gives a maximal wheal response, is injected (in 0.05 ml of saline) intradermally into anesthetized rats which have been pretreated for 30 minutes with 50 mg/kg of pyrilamine maleate and 4 mg/kg of methyl […] maleate (both administered intraperitoneally). The animal is then immediately treated with test drug (at 10 mg/kg, i.v.) followed by an intravenous injection of Evans blue (0.5%) into the tail vein of the animal. Thirty minutes later the animals are sacrificed and the increase in capillary permeability induced by LTE is reflected by the migration of dye into the injection point in the skin (the response being quantitated by the size, in mm, of the dye spot in the skin). The average response in 5 animals (4 intradermal injections of LTE per animal) treated with the test compound is compared with the response elicited in a similar group of animals which were not treated with the drug. For oral studies, the test animals are pretreated two hours prior to intradermal injection of LTE.

[3] = tested on: histamine-induced constriction in guinea pig ilea; assay: Antagonism of histamine-induced constriction in guinea pig ilea; settings: 1×10^-7 M histamine
Experimental: (f) Antagonism of Histamine-induced Constriction in Guinea Pig Ilea
Antihistaminic activity was determined on a segment of guinea pig ileum that was suspended in a 37° C. bath of oxygenated Tyrodes solution. At 4 minute intervals, the ileum was challenged with 1×10^-7 M histamine for sufficient time to produce a peak contraction and then washed with fresh Tyrodes solution. After the tissue response to histamine had stabilized, the ileum was pretreated with the standard antihistaminic compound, pyrilamine maleate, for 1 minute prior to rechallenge with histamine, the contraction recorded, and the tissue washed with Tyrodes solution. […] By the IC50 for pyrilamine maleate in the test system was 1×10^-8 M. IC50 's for test drugs were determined by this same procedure.

[4] = molecular target: T1, PAF radioreceptor (dog platelets) (Canis lupus familiaris, UniProt A0A8I3NSH0); assay: PAF radioreceptor binding assay; settings: 3H-PAF
T1 construct: Platelet rich plasma is prepared by centrifugation of citrate-treated dog blood; from tissue; host or cells: washed dog platelets
T1 sequence (A0A8I3NSH0 1-343): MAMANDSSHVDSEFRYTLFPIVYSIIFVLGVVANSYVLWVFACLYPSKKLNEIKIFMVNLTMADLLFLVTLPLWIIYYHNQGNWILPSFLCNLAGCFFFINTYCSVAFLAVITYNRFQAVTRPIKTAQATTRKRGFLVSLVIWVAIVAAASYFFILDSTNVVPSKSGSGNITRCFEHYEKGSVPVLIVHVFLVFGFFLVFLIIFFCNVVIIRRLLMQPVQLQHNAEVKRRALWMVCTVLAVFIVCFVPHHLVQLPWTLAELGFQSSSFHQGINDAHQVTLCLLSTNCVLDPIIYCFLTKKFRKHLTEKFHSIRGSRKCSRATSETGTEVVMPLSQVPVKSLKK
Experimental: (m) PAF Radioreceptor Binding Assay
Platelet rich plasma is prepared by centrifugation of citrate-treated dog blood. Acidification to pH 6.5 with 0.15M citric acid and centrifugation for 10 minutes at 1000 g yields a platelet pellet which is then washed by resuspension in EDTA-Phosphate Buffered Saline (PBS) and recentrifuged. The washed platelet preparation is adjusted to 2×10^7 platelets/50 μl in 0.1% BSA-PBS.
To a […] microfuge tube containing 50 μl silicone oil (specific gravity 1.023) is added buffer, PAF standard or analog, or an extract to bring the aqueous volume to 150 μl. 50 μl of ^3 H-PAF (10,000 cpm, 45 Ci/mM) is added followed by 2×10^7 dog platelets. After mixing, incubating for 10 minutes at room temperature, and centrifuging for 1 minute in a Beckman Microfuge B (8000 g), the pellet is removed by clipping off the tip of the tube, solubilizing the platelets with 200 μl of 50% methanol, and counting in 10 ml of Aquasol.

| SMILES | pIC50 [1] | ED50 ([2]; iv) [mg/kg] | ED50 ([2]; po) [mg/kg] | pIC50 [3] | pIC50 [4] |
| --- | --- | --- | --- | --- | --- |
| CC(C)c1ccc2nc3ccc(C(=O)NCCCCn4ccnc4)cn3c(=O)c2c1 [Compound A, N-[4-(1H-imidazol-1-yl)butyl]-2-(1-methylethyl)-11-oxo-11H-pyrido[2,1-b]quinazoline-8-carboxamide] | 6.00 | 30 | 46 | 6.00 |  |
| CC(C)c1ccc2nc3ccc(C(=O)NCCCCCCc4cccnc4)cn3c(=O)c2c1 [Compound C, 2-(1-Methylethyl)-N-[6-(3-pyridyl)hexyl]-11-oxo-11H-pyrido[2,1-b]quinazoline-8-carboxamide] |  |  |  |  | 6.00 |
| CC(C)c1ccc2nc3ccc(C(=O)NCCCCc4cccnc4)cn3c(=O)c2c1 [Compound B, 2-(1-methylethyl)-N-[4-(3-pyridyl)butyl]-11-oxo-11H-pyrido[2,1-b]quinazoline-8-carboxamide] | 6.00 | 15 | 70 | 5.70 | 6.35 |
